Test results: paper PMC4742970 (Nature Communications, 2016)

Legend:
Msh2–Msh3 (Msh2HA–Msh3) [1] = biological target: T1, Msh2–Msh3 (Msh2HA–Msh3) (Saccharomyces cerevisiae, UniProt P25336+P25847); experiment: ATPase assay, gamma-32P-ATP, PEI-cellulose TLC; type: biochemical; conditions: 20-250 μM ATP, 2 mM MgCl2, pH 7.5, 30 °C, 100 nM protein, with or without 2 μM DNA
T1 construct: heterodimer overexpressed in and purified from yeast; labelled with anti-HA quantum dots in single-molecule tests
T1 sequence (P25847 1-964): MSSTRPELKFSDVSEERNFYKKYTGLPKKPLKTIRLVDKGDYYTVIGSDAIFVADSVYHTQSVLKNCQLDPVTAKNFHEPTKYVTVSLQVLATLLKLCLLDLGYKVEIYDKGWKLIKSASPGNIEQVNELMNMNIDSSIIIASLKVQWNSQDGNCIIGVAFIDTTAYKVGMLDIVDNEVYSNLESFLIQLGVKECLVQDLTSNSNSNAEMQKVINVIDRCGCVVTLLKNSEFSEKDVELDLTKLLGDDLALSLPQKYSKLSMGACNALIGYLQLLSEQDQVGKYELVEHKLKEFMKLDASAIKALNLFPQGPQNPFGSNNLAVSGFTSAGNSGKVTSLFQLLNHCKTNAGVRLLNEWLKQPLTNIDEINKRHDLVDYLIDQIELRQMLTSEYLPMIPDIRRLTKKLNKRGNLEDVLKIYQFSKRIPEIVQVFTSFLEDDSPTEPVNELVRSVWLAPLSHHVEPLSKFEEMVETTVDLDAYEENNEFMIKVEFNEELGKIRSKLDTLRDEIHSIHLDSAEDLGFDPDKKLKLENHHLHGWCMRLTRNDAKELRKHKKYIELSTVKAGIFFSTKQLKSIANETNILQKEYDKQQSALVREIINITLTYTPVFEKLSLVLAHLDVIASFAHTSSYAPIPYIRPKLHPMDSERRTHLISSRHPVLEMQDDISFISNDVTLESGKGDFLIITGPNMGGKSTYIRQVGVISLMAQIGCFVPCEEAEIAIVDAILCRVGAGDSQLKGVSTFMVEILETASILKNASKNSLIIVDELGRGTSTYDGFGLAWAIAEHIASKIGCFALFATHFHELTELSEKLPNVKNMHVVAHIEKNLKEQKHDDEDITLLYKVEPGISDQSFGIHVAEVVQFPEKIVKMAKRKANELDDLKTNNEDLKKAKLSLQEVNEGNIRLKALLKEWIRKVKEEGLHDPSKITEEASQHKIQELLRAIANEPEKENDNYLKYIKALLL
T1 sequence (P25336 1-1018): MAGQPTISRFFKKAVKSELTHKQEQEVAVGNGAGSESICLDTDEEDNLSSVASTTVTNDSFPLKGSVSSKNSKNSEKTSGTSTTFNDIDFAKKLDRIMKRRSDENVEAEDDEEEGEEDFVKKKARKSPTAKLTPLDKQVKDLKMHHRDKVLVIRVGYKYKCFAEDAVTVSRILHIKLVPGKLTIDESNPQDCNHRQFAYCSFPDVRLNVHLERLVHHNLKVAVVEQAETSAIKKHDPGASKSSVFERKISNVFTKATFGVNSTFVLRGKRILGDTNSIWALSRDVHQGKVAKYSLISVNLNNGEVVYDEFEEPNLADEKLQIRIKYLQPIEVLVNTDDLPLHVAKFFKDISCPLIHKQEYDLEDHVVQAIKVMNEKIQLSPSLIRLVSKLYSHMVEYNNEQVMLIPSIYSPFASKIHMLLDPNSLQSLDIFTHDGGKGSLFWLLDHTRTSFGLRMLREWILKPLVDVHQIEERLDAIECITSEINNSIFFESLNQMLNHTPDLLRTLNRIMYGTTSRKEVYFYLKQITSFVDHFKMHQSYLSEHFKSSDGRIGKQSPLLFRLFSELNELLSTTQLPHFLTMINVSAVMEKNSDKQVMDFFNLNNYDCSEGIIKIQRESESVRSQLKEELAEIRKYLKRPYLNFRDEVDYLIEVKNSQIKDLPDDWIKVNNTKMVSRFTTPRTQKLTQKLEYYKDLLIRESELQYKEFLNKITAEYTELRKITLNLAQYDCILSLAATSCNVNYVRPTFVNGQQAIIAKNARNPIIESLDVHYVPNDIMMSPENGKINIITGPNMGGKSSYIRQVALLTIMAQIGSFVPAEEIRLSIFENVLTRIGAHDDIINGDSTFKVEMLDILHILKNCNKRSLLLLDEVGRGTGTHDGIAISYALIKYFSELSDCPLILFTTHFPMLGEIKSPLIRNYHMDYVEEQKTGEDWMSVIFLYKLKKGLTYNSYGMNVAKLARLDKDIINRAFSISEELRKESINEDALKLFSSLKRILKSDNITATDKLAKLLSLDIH

Msh2–Msh3 (Msh2HA–Msh3) [2] = biological target: T1, Msh2–Msh3 (Msh2HA–Msh3); experiment: single-molecule diffusion on DNA curtains (TIRF); type: binding; conditions: 1 mM ADP, 50 mM NaCl, 40 mM Tris-HCl pH 8; functional effect on diffusion along homoduplex DNA
Msh2(HA)-Msh3 = Msh2(HA)-Msh3 (Saccharomyces cerevisiae, UniProt P25847;P25336 1-964;1-1018); experiment: EMSA; no antibody or QD; EMSA: 20 mM HEPES pH 7.5, 100 mM NaCl, 1 mM DTT, 40 ug/ml BSA, 2 mM MgCl2, RT; curtains: 40 mM Tris-HCl pH 8, 25-150 mM NaCl, 2 mM MgCl2, 1-2 mM DTT, 0.2 mg/ml

## Nc1ncnc2c1ncn2[C@@H]1O[C@H](COP(=O)(O)OP(=O)(O)OP(=O)(O)O)[C@@H](O)[C@H]1O [ATP]
Msh2–Msh3 (Msh2HA–Msh3) [1]
  ATPase assay, gamma-32P-ATP, PEI-cellulose TLC: Gel shift and ATPase assays indicated that the QD-tagged Msh2–Msh3 retained biochemical activities

## Nc1ncnc2c1ncn2[C@@H]1O[C@H](COP(=O)(O)OP(=O)(O)O)[C@@H](O)[C@H]1O [ADP]
Msh2–Msh3 (Msh2HA–Msh3) [2]
  single-molecule diffusion on DNA curtains (TIRF): Here we show that ADP and ATP also alter the interactions of the yeast Msh2–Msh3

B1: 3'-ssDNA flap LS1/LS3/LS16 (mixed)
DNA 1: CACGCTACCGAATTCTGACTTGCTAGGACATCTTTGCCCACGTTGACCC
DNA 2: TCGATAGTCTCTAGATAGCATGTCCTAGCAAGTCAGAATTCGGTAGCGTG
DNA 3: GCTATCTAGAGACTATCGA
Msh2(HA)-Msh3
  binding result: binds
